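All cell lines were grown in 96-well plates and treated with compound for 48 hours. GI50 marks 50% less growth.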 Calls of active or inactive are those of the source. Cut-off read from the data, not from the text of the source: active = GI50 up to about 1.1 µM and inactive = higher.
Assays:
Assay in all cases: growth of human tumour cells (NCI), 48 h
SNB-19 = system: SNB-19
COLO 205 = system: COLO 205
MOLT-4 = system: MOLT-4
U-251 = system: U-251
SK-OV-3 = system: SK-OV-3
OVCAR-5 = system: OVCAR-5
HT-29 = system: HT-29
SW-620 = system: SW-620
HCT-116 = system: HCT-116
A498 = system: A498
M14 = system: M14
K562 = system: K562
KM-20L2 = system: KM-20L2
NCI-H23 = system: NCI-H23
HOP-92 = system: HOP-92
ACHN = system: ACHN
SR = system: SR
LOX IMVI = system: LOX IMVI
MDA-MB-231 = system: MDA-MB-231
NCI/ADR-RES = system: NCI/ADR-RES

Measured: GI50

CC1(C)Oc2ccccc2N2O[C@@H]3C(=O)N(c4ccccc4)C(=O)[C@@H]3C21c1ccccc1 (some centres not stated)
inactive: SNB-19 19.7 µM | COLO 205 39.1 µM | MOLT-4 27.1 µM | U-251 25 µM | SK-OV-3 22.1 µM | OVCAR-5 78.3 µM | HT-29 29 µM | SW-620 34.4 µM | HCT-116 20.8 µM | A498 20.8 µM | M14 20.7 µM | K562 37.4 µM | KM-20L2 51.4 µM | NCI-H23 97.7 µM

CC1=CC(=O)C(C)(C2=NC(C)(C)CO2)c2ccccc21 (configuration not stated)
inactive: SNB-19 > 100 µM | COLO 205 > 100 µM | HOP-92 > 100 µM | MOLT-4 > 100 µM | U-251 > 100 µM | SK-OV-3 > 100 µM | HT-29 > 100 µM | SW-620 > 100 µM | ACHN > 100 µM | HCT-116 > 100 µM | M14 > 100 µM | K562 > 100 µM | KM-20L2 > 100 µM | NCI-H23 > 100 µM | SR > 100 µM

COc1ccc(/C=C/C(=O)c2sc(-c3cccnc3)nc2C)cc1
inactive: COLO 205 48.3 µM | HOP-92 81.5 µM | LOX IMVI 25.1 µM | MOLT-4 16.7 µM | U-251 58.3 µM | SK-OV-3 82.6 µM | OVCAR-5 > 100 µM | HT-29 36.9 µM | SW-620 32.8 µM | A498 > 100 µM | K562 21.8 µM | KM-20L2 56.4 µM | NCI-H23 75.5 µM

O=S1OC2(c3ccccc3-c3ccccc32)c2ccccc21 (configuration not stated)
inactive: SNB-19 > 100 µM | COLO 205 > 100 µM | LOX IMVI > 100 µM | MOLT-4 52.4 µM | U-251 > 100 µM | SK-OV-3 > 100 µM | OVCAR-5 > 100 µM | HT-29 > 100 µM | SW-620 > 100 µM | ACHN > 100 µM | HCT-116 > 100 µM | A498 > 100 µM | M14 > 100 µM | K562 > 100 µM | KM-20L2 > 100 µM | NCI-H23 > 100 µM | SR > 100 µM

O=C(O)[C@H](NS(=O)(=O)c1ccc2ccccc2c1)c1ccccc1
inactive: SNB-19 > 100 µM | COLO 205 > 100 µM | HOP-92 45.3 µM | LOX IMVI > 100 µM | MOLT-4 > 100 µM | U-251 > 100 µM | SK-OV-3 > 100 µM | OVCAR-5 > 100 µM | HT-29 > 100 µM | ACHN > 100 µM | A498 > 100 µM | M14 > 100 µM | K562 > 100 µM | KM-20L2 > 100 µM | NCI-H23 > 100 µM

O=C1C2=C(c3ccccc31)C(c1ccccc1Cl)NC(S)=N2 (configuration not stated)
inactive: SNB-19 52.1 µM | COLO 205 69.3 µM | HOP-92 16.5 µM | MOLT-4 31.8 µM | U-251 77.6 µM | SK-OV-3 > 100 µM | OVCAR-5 > 100 µM | HT-29 51.9 µM | SW-620 74.5 µM | ACHN 41.8 µM | HCT-116 44.9 µM | A498 61.8 µM | M14 51.8 µM | K562 49.2 µM | KM-20L2 74.3 µM | NCI-H23 39.4 µM

COC(=O)c1oc([N+](=O)[O-])c(-c2ccccc2)c1-c1ccccc1
inactive: SNB-19 > 100 µM | COLO 205 37.7 µM | HOP-92 > 100 µM | LOX IMVI 35.5 µM | MOLT-4 33.6 µM | U-251 > 100 µM | SK-OV-3 > 100 µM | OVCAR-5 > 100 µM | HT-29 88.3 µM | SW-620 > 100 µM | ACHN > 100 µM | HCT-116 > 100 µM | A498 > 100 µM | M14 > 100 µM | K562 > 100 µM | KM-20L2 > 100 µM | NCI-H23 > 100 µM

CC(=O)Nc1ccc(C2C(C(=O)Nc3ccccc3)=C(C)NC(C)=C2C(=O)Nc2ccccc2)cc1
inactive: SNB-19 > 100 µM | COLO 205 > 100 µM | HOP-92 > 100 µM | LOX IMVI > 79.6 µM | MOLT-4 > 100 µM | U-251 > 100 µM | SK-OV-3 > 100 µM | OVCAR-5 > 100 µM | HT-29 > 100 µM | SW-620 98.4 µM | ACHN > 100 µM | HCT-116 > 91 µM | A498 > 100 µM | M14 > 100 µM | K562 > 100 µM | KM-20L2 > 100 µM | NCI-H23 > 100 µM

O=CC[C@H]1CCc2ccccc2C12CCC(=O)CC2
inactive: SNB-19 87.7 µM | COLO 205 94.2 µM | HOP-92 68.4 µM | LOX IMVI 62.7 µM | MOLT-4 30.5 µM | SK-OV-3 > 100 µM | OVCAR-5 > 100 µM | HT-29 47.9 µM | SW-620 80.2 µM | ACHN > 100 µM | HCT-116 39.3 µM | A498 > 100 µM | M14 86.3 µM | K562 28.2 µM | KM-20L2 22.1 µM

Cn1cc(C(=O)C2CCCCC2)ccc1=O
inactive: SNB-19 > 100 µM | COLO 205 > 100 µM | HOP-92 > 100 µM | LOX IMVI > 100 µM | MOLT-4 > 100 µM | U-251 > 100 µM | SK-OV-3 > 100 µM | OVCAR-5 > 100 µM | HT-29 > 100 µM | SW-620 > 100 µM | ACHN > 100 µM | HCT-116 > 100 µM | M14 > 100 µM | K562 > 100 µM | KM-20L2 > 100 µM | NCI-H23 > 100 µM | SR > 100 µM

CC1(C)N=C(/C=N/O)C(C)(C)N1O
inactive: MDA-MB-231 > 100 µM | SNB-19 87.3 µM | COLO 205 > 100 µM | HOP-92 > 100 µM | LOX IMVI > 100 µM | MOLT-4 > 100 µM | U-251 > 100 µM | SK-OV-3 > 100 µM | OVCAR-5 > 100 µM | HT-29 > 100 µM | SW-620 > 100 µM | ACHN > 100 µM | HCT-116 > 100 µM | NCI/ADR-RES > 100 µM | A498 > 100 µM | M14 > 100 µM | K562 > 100 µM | NCI-H23 > 100 µM | SR > 100 µM

O=C1C2C(C(=O)N1c1ccccc1)C1c3ccccc3C2C2C(=O)N(c3ccccc3)C(=O)C21 (configuration not stated)
inactive: SNB-19 6.27 µM | COLO 205 3.89 µM | HOP-92 6.82 µM | LOX IMVI 10.5 µM | MOLT-4 20.7 µM | U-251 2.82 µM | SK-OV-3 8.22 µM | OVCAR-5 15.1 µM | HT-29 26.6 µM | SW-620 6.12 µM | ACHN 6.47 µM | HCT-116 3.12 µM | A498 6.71 µM | M14 2.85 µM | K562 3.42 µM | KM-20L2 18.2 µM | NCI-H23 18.5 µM

Source: ChEMBL document CHEMBL1201862, “PubChem BioAssay data set” (2004)
